Molecular target: GPR55 (Homo sapiens, UniProt Q9Y2T6)
Assay: cell rounding, dose response, GPR55-expressing vs empty-vector HEK293 cells
Assay type: cell-based

Sequence of GPR55 (Q9Y2T6 whole entry): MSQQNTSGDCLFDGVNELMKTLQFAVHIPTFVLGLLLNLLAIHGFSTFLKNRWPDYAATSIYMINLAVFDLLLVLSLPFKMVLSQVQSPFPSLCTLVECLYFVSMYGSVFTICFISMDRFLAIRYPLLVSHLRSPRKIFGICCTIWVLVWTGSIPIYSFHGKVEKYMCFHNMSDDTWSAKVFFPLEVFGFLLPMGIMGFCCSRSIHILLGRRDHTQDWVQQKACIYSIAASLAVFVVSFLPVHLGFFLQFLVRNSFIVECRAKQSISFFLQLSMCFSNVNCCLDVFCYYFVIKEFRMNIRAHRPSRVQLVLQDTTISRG

Cc1c(C(=O)NN2CCCCC2)nn(-c2ccc(Cl)cc2Cl)c1-c1ccc(Cl)cc1 [SR141716A]
cell rounding, dose response, GPR55-expressing vs empty-vector HEK293 cells: cell rounding induced by AM251 and SR141716A was not observed in empty vector-transfected cells
